Experimental data taken from US20260083701A1, “COMPOSITIONS, FORMULATIONS, AND METHODS FOR TREATMENT OF INFLAMMATORY CONDITIONS” (Oddity Labs, LLC, priority 2023, published 2026).

How the values were obtained:
[1] = test system: IL-4 receptor signaling; assay: IL-4 signaling inhibition in HEK-Blue IL-4/IL-13 cells; type: cell-based, human; conditions: HEK-Blue IL-4/IL-13 cells stimulated with 1.25 ng/mL IL-4, co-culture with varying concentrations for 24 hours
Experimental: HEK-Blue IL-4/IL-13 cells are used to evaluate IL-4/IL-4R-alpha binding. HEK-Blue IL-4/IL-13 have been engineered to produce secreted alkaline phosphatase (SEAP) when exposed to IL-4 or IL-13 and have been previously used to identify IL-4 and IL-4R inhibitors. Compounds are tested with these cells at various dosages to evaluate dose dependent changes in IL-4/IL-4R-alpha binding inhibition. Full EC50 curves are generated for Tier1 compounds.
In the experiment, engineered HEK-Blue™ IL-4/IL-13 cells were stimulated with a dose of 1.25 ng/mL of IL-4 and then subjected to co-culture with varying concentrations of the compounds for a period of 24 hours. […] The provided data represent the mean±standard deviation of six technical replicates carried out across two experimental replicates.

[2] = test system: IL-4; assay: Functional Th2-blocking activity: IL-4 expression in primary human Th2 cells (intracellular flow cytometry); type: cell-based; conditions: for % Normalized Reduction of Cytokine Expression From Baseline in CD4+ T Cells IL-4: normalized against vehicle control (water), 3 days co-culture, PMA/ionomycin 6 hours; for % Normalized Reduction of Cytokine Expression From Baseline in CD4+ T Cells IL-4 / Expression of Cytokine following Stimulation (% X Positive among CD4+ T cells) IL-4: primary human CD4+ Th2 cells; for Expression of Cytokine following Stimulation (% X Positive among CD4+ T cells) IL-4: 3 days co-culture with compound, PMA/ionomycin stimulation 6 hours
Description: (§1) To produce T helper 2 (Th2) cells, peripheral blood mononuclear cells (PBMCs) were harvested from healthy donor leukopaks using Ficoll gradients. Naive CD4+ T cells were further isolated, then activated using TransAct or Dynabeads (depending on the donor). CD4+ T cells were activated for two days in the presence of low dose IL-2 (30 IU/mL) in X-VIVO-15 media containing 5% human AB serum (activation cycle). On the second day, the media was exchanged and supplemented with interleukin 4 (IL-4) (20 ng/mL), anti-IFN-gamma antibody (1 μg/mL), and interleukin 2 (IL-2) (rest cycle). The cells were cultured for an additional five days then evaluated for Prostaglandin D2 receptor 2 (DP2 or CRTH2) expression and IL-4 and interleukin 13 (IL-13) expression following phorbol myristate acetate (PMA)/ionomycin stimulation. If the expression of CRTH2 was >50%, the cells were frozen and used in Th2 IL-4/IL-13 bioactivity assays. If the expression of CRTH2 <50%, then the cells were restimulated using TransAct (or Dynabeads) and maintained on similar cycles of activation (2 days) and rest (5 days), until the expression of CRTH2 exceeded 50%. Typically, no more than 4 cycles are needed before the Th2 cells may be harvested and frozen.
(§2) For testing the ability of a compound or salt of the present disclosure to reduce the expression of IL-4 and IL-13 was tested in primary human Th2 cells, the abovementioned cells were thawed, then cultured for one day in IL-2 containing media. The Th2 cells were treated with compounds added at varying concentrations for three days, after which, the cells were washed, and stimulated with PMA/ionomycin for 6 hrs prior to readabout via intracellular flow cytometry.
(§3) The ability of a compound or salt of the present disclosure to reduce the expression of IL-4 and IL-13 was tested in primary human Th2 cells. Naive, primary human CD4+ T cells were isolated from healthy donors and differentiated into Th2 cells using a combination of IL-4 cytokine and anti-IFN-gamma antibody, based on a modified protocol from Scott et al (Activation of Th2 cells downregulates CRTh2 through an NFAT1 mediated mechanism. PLoS One. 2018 Jul. 3; 13(7):e0199156). Th2 cells were CRTH2+ and expressed IL-4 and IL-13 following PMA/ionomycin stimulation. Prior to PMA/ionomycin stimulation, Th2 cells were co-cultured with a compound or salt of the present disclosure for 3 days and then stimulated for 6 hours. Intracellular flow cytometry was performed to investigate the expression of IL-4 and IL-13 among stimulated CD4+ Th2 cells. The compound or salt was evaluated across a 2-log concentration range. Th2 cells were cultured in X-VIVO-15 media with human AB serum and supplemented with low dose IL-2 (30 IU/mL). The antibody panel that was used is listed below. All antibodies were obtained from Biolegend.
(§4) Description of Calculation for: (1) Expression of Cytokine following Stimulation (% X Positive among CD4+ T cells), and (2) % Normalized Reduction of Cytokine Expression From Baseline in CD4+ T Cells
(§5) The expression of IL-4 and IL-13 was measured based on positive gated fractions among CD4+ Th2 cells. The number is expressed as a positive percentage, determined based on the fluorescence-minus-one (FMO) control. The max percent is 100%. The normalized reduction value uses the vehicle control (water) to normalize against using the following percent change formula. (Cmpd: compound)

[3] = test system: IL-13; assay: Functional Th2-blocking activity: IL-13 expression in primary human Th2 cells (intracellular flow cytometry); type: cell-based; conditions: for Expression of Cytokine following Stimulation (% X Positive among CD4+ T cells) IL-13: 3 days co-culture with compound, PMA/ionomycin stimulation 6 hours; for % Normalized Reduction of Cytokine Expression From Baseline in CD4+ T Cells IL-13: normalized against vehicle control (water), 3 days co-culture, PMA/ionomycin 6 hours
Description: as §1, §2, §3, §4, §5

Compound: Nc1c(C(=O)Nc2ccc(Cl)c(Cl)c2)c2ccccn2c1C(=O)c1cccc([N+](=O)[O-])c1 [Compound I-3, 2-amino-N-(3,4-dichlorophenyl)-3-(3-nitrobenzoyl)indolizine-1-carboxamide]
- IL-4 signaling inhibition [1]: prominent IL-4 signaling inhibition
- % Normalized Reduction of Cytokine Expression From Baseline in CD4+ T Cells IL-4 [2]: B (B represents 15% to less than 20%)
- Expression of Cytokine following Stimulation (% X Positive among CD4+ T cells) IL-4 [2]: B (B represents 30% to less than 35%)
- Expression of Cytokine following Stimulation (% X Positive among CD4+ T cells) IL-13 [3]: C (C represents 14% to less than 18%)
- % Normalized Reduction of Cytokine Expression From Baseline in CD4+ T Cells IL-13 [3]: C (C represents 40% to less than 50%)

Compound: O=C(Nc1cccc(Cn2nc3ccccn3c2=O)c1)c1c[nH]n2c1nc(=O)c1ccccc12 [II-2, 5-oxo-N-(3-((3-oxo-[1,2,4]triazolo[4,3-a]pyridin-2(3H)-yl)methyl)phenyl)-1,5-dihydropyrazolo[1,5-a]quinazoline-3-carboxamide]
- IL-4 signaling inhibition [1]: exception
- Th2 activity [2]: suppressed Th2 activity
- % Normalized Reduction of Cytokine Expression From Baseline in CD4+ T Cells IL-4 [2]: B (B represents 15% to less than 20%)
- Expression of Cytokine following Stimulation (% X Positive among CD4+ T cells) IL-4 [2]: B (B represents 30% to less than 35%)
- Expression of Cytokine following Stimulation (% X Positive among CD4+ T cells) IL-13 [3]: B (B represents 10% to less than 14%)
- % Normalized Reduction of Cytokine Expression From Baseline in CD4+ T Cells IL-13 [3]: D (D represents 50% or greater)

Compound: O=C(Nc1cccc(S(=O)(=O)NC2=NCCC2)c1)c1ccc(OCc2ccccc2)cc1 [III-1, 4-(benzyloxy)-N-{3-[(3,4-dihydro-2H-pyrrol-5-yl)sulfamoyl]phenyl}benzamide]
- IL-4 signaling inhibition [1]: prominent IL-4 signaling inhibition
- % Normalized Reduction of Cytokine Expression From Baseline in CD4+ T Cells IL-4 [2]: D (D represents 25% or greater)
- Expression of Cytokine following Stimulation (% X Positive among CD4+ T cells) IL-4 [2]: A (A represents 0% to less than 30%)
- Expression of Cytokine following Stimulation (% X Positive among CD4+ T cells) IL-13 [3]: B (B represents 10% to less than 14%)
- % Normalized Reduction of Cytokine Expression From Baseline in CD4+ T Cells IL-13 [3]: D (D represents 50% or greater)

Compound: Cc1ccc(CCNC(=O)c2ccc3c(=O)n(-c4ccc(C)cc4)c(=O)[nH]c3c2)cc1 [VI-10, 3-(4-methylpheny1)-N-[2-(4-methylphenyl)ethyl]-2,4-dioxo-1,2,3,4-tetrahydroquinazoline-7-carboxamide]
- % Normalized Reduction of Cytokine Expression From Baseline in CD4+ T Cells IL-4 [2]: C (C represents 20% to less than 25%)
- Expression of Cytokine following Stimulation (% X Positive among CD4+ T cells) IL-4 [2]: B (B represents 30% to less than 35%)
- Expression of Cytokine following Stimulation (% X Positive among CD4+ T cells) IL-13 [3]: C (C represents 14% to less than 18%)
- % Normalized Reduction of Cytokine Expression From Baseline in CD4+ T Cells IL-13 [3]: B (B represents 30% to less than 40%)

Compound: O=C(N/N=C/c1cccc(OCc2ccccc2)c1)c1cc2ccccc2cc1O [VI-11, N′-[3-(benzyloxy)benzylidene]-3-hydroxy-2-naphthohydrazide]
- % Normalized Reduction of Cytokine Expression From Baseline in CD4+ T Cells IL-4 [2]: A (A represents 0% to less than 15%)
- Expression of Cytokine following Stimulation (% X Positive among CD4+ T cells) IL-4 [2]: D (D represents 40% or greater)
- Expression of Cytokine following Stimulation (% X Positive among CD4+ T cells) IL-13 [3]: D (D represents 18% or greater)
- % Normalized Reduction of Cytokine Expression From Baseline in CD4+ T Cells IL-13 [3]: A (A represents 0% to less than 30%)

Compound: COc1ccc(-c2cc(=O)c3c(O)cc(O[C@@H]4O[C@H](CO)[C@@H](O)[C@H](O)[C@H]4O)cc3o2)cc1O [VI-12, Diosmetin-7-O-beta-D-glucopyranoside]
- % Normalized Reduction of Cytokine Expression From Baseline in CD4+ T Cells IL-4 [2]: D (D represents 25% or greater)
- Expression of Cytokine following Stimulation (% X Positive among CD4+ T cells) IL-4 [2]: A (A represents 0% to less than 30%)
- Expression of Cytokine following Stimulation (% X Positive among CD4+ T cells) IL-13 [3]: A (A represents 0% to less than 10%)
- % Normalized Reduction of Cytokine Expression From Baseline in CD4+ T Cells IL-13 [3]: D (D represents 50% or greater)

Compound: O=C(Oc1ccc(OC(=O)c2ccc3c(c2)C(=O)OC3=O)cc1)c1ccc2c(c1)C(=O)OC2=O [VI-13, 4-(1,3-dioxo-1,3-dihydro-2-benzofuran-5-carbonyloxy)phenyl 1,3-dioxo-1,3-dihydro-2-benzofuran-5-carboxylate]
- % Normalized Reduction of Cytokine Expression From Baseline in CD4+ T Cells IL-4 [2]: C (C represents 20% to less than 25%)
- Expression of Cytokine following Stimulation (% X Positive among CD4+ T cells) IL-4 [2]: B (B represents 30% to less than 35%)
- Expression of Cytokine following Stimulation (% X Positive among CD4+ T cells) IL-13 [3]: C (C represents 14% to less than 18%)
- % Normalized Reduction of Cytokine Expression From Baseline in CD4+ T Cells IL-13 [3]: B (B represents 30% to less than 40%)

Compound: O=C1Cc2cc(-c3csc(Cc4ccc(F)cc4)n3)cc3c2N1CCC3 [VI-14, 8-(2-(4-fluorobenzyl)thiazol-4-yl)-5,6-dihydro-4H-pyrrolo[3,2,1-ij]quinolin-2(1H)-one]
- % Normalized Reduction of Cytokine Expression From Baseline in CD4+ T Cells IL-4 [2]: C (C represents 20% to less than 25%)
- Expression of Cytokine following Stimulation (% X Positive among CD4+ T cells) IL-4 [2]: B (B represents 30% to less than 35%)
- Expression of Cytokine following Stimulation (% X Positive among CD4+ T cells) IL-13 [3]: B (B represents 10% to less than 14%)
- % Normalized Reduction of Cytokine Expression From Baseline in CD4+ T Cells IL-13 [3]: D (D represents 50% or greater)
